Values of other authors, collected in US20200129574A1 (priority 2018, published 2020).

Tests used:
prostate cancer cells = details: in vitro
[1] = system: several tumor cell types, including prostate cancer cell lines, and primary prostate tumor lines; details: several tumor cell types incl. prostate cancer cell lines and primary prostate tumor lines

## Vitamin D
Prostate cancer cells
  effect on invasion of prostate cancer cells: decrease invasion
a6 and 134 integrins
  expression of a6 and 134 integrins: decreased expression
[1]
  effect on proliferation and differentiation of tumor cells: inhibit proliferation and promote differentiation
